The test system of the assay is Aedes aegypti. Put plainly: Larvicidal activity against second instar larvae of Aedes aegypti. It counts as functional.

Converted amounts (≈) assume the structure as drawn.

For the molecule `C#CCCCCCCCCCCC1=C[C@H](C)OC1=O`, the LC50 was 0.41 µg/mL (≈ 1.56 µM).
In the case of `C=CCCCCCCCCCCC1=C[C@H](C)OC1=O`, the LC50 was determined as 0.47 µg/mL (≈ 1.78 µM).

These data come from ChEMBL document CHEMBL1150576, “Two new lactones with mosquito larvicidal activity from three Hortonia species” (2001).
